Legend:
Settings in all cases: incubation time: 72 h
CAL-51 [1] = assay: normalised response (% of control), CellTox Green; higher = less cell death (100 = DMSO, 0 = benzethonium chloride kill control)
How it was run: (§1)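 Each value is the plate-normalised signal at one concentration of the series. Breast cancer cell lines (20 µl suspension) were incubated 72 h in 384-well plates with compound at 5 concentrations in 10-fold steps over a compound-specific 10,000-fold range. CellTox Green and then CellTiter-Glo were read, and each plate was scaled to 0.1 % DMSO (100) and a positive kill control (0).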

HCC1937 [2] = assay: as above
How it was run: as §1

MDA-MB-231 [3] = assay: as above
How it was run: as §1

MFM-223 [4] = assay: as above
How it was run: as §1

BT-474 = assay: normalised response (% of control), CellTiter-Glo; higher = more viable cells (100 = DMSO, 0 = benzethonium chloride kill control)
How it was run: as §1

BT-549 = assay: as above
How it was run: as §1

CAL-120 = assay: as above
How it was run: as §1

CAL-148 = assay: as above
How it was run: as §1

CAL-51 [5] = assay: as above
How it was run: as §1

CAL-85-1 = assay: as above
How it was run: as §1

DU-4475 = assay: as above
How it was run: as §1

HCC1143 = assay: as above
How it was run: as §1

HCC1599 = assay: as above
How it was run: as §1

HCC1937 [6] = assay: as above
How it was run: as §1

HDQ-P1 = assay: as above
How it was run: as §1

Hs578T = assay: as above
How it was run: as §1

MCF-10A = assay: as above
How it was run: as §1

MDA-MB-231 [7] = assay: as above
How it was run: as §1

MDA-MB-436 = assay: as above
How it was run: as §1

MDA-MB-453 = assay: as above
How it was run: as §1

MDA-MB-468 = assay: as above
How it was run: as §1

MFM-223 [8] = assay: as above
How it was run: as §1

SK-BR-3 = assay: as above
How it was run: as §1

| Structure (SMILES) | normalised response (CAL-51 [1]) | normalised response (HCC1937 [2]) | normalised response (MDA-MB-231 [3]) | normalised response (MFM-223 [4]) | normalised response (BT-474) | normalised response (BT-549) | normalised response (CAL-120) | normalised response (CAL-148) | normalised response (CAL-51 [5]) | normalised response (CAL-85-1) | normalised response (DU-4475) | normalised response (HCC1143) | normalised response (HCC1599) | normalised response (HCC1937 [6]) | normalised response (HDQ-P1) | normalised response (Hs578T) | normalised response (MCF-10A) | normalised response (MDA-MB-231 [7]) | normalised response (MDA-MB-436) | normalised response (MDA-MB-453) | normalised response (MDA-MB-468) | normalised response (MFM-223 [8]) | normalised response (SK-BR-3) |
| --- | --- | --- | --- | --- | --- | --- | --- | --- | --- | --- | --- | --- | --- | --- | --- | --- | --- | --- | --- | --- | --- | --- | --- |
| O=C(Nc1cccnc1)N1CCC(Cc2cccc(Oc3ccc(C(F)(F)F)cn3)c2)CC1 [PF-3845] (10000 nM) | 108% | 76.2% | 108% | 78.1% | 93.3% | 71.7% | 86% | 88.4% | 44.6% | 89.7% | 85% | 86.1% | 46.2% | 75.3% | 95.2% | 92.1% | 93.4% | 89.1% | 72.6% | 74.7% | 49.1% | 75.7% | 57.1% |
| Cc1[nH]c2ccccc2c1CCNCc1ccc(/C=C/C(=O)NO)cc1 [Panobinostat] (1000 nM) | -9.56% | -17.6% | -36.7% | 32.5% | 7.51% | 14.4% | 9.89% | 0.3% | 8.29% | 3.87% | 13.9% | 13.4% | 6.35% | 20.7% | 26.4% | 5.17% | 11% | 6.11% | 30.2% | 2.01% | 7.12% | 29.4% | 0.27% |
| CNC(=O)c1cc(Oc2ccc(NC(=O)Nc3ccc(Cl)c(C(F)(F)F)c3)c(F)c2)ccn1 [Regorafenib] (10000 nM) | 108% | 10.5% | 94.3% | 97.3% | 50% | 43.7% | 49.8% | 66.7% | 73.8% | 89.3% | 58.2% | 77.8% | 36.5% | 50.1% | 57.4% | 47% | 46.2% | 61.2% | 46.9% | 59.1% | 29.8% | 35.9% | 51.7% |
| CO[C@H]1C[C@@H]2CC[C@@H](C)[C@@](O)(O2)C(=O)C(=O)N2CCCC[C@H]2C(=O)O[C@H]([C@H](C)C[C@@H]2CC[C@@H](OP(C)(C)=O)[C@H](OC)C2)CC(=O)[C@H](C)/C=C(\C)[C@@H](O)[C@@H](OC)C(=O)[C@H](C)C[C@H](C)/C=C/C=C/C=C/1C [Ridaforolimus] (100 nM) | 102% | 103% | 51.6% | 102% | 81.5% | 54.8% | 64.8% | 58.8% | 62% | 66.8% | 72.8% | 67.1% | 108% | 69.3% | 79% | 69.6% | 85.1% | 88.4% | 82.5% | 62.8% | 56.7% | 68.3% | 56.9% |
| c1ccc2c(CCNc3ccc(Nc4ccncc4)cc3)c[nH]c2c1 [Serdemetan] (10000 nM) | 69.5% | 102% | 46.1% | 38.8% | 51.8% | 23.6% | 67.3% | 21.3% | 9.77% | 39.1% | 0.28% | 52.9% | 14.4% | 49.7% | 73.6% | 48.1% | 52.6% | 41% | 44.8% | 42.3% | 9.51% | 58% | 15.5% |
| CN(C)CCOc1ccc(/C(=C(/CCCl)c2ccccc2)c2ccccc2)cc1 [Toremifene] (10000 nM) | 104% | -3.77% | 47.6% | 94.7% | 68.5% | 81.8% | 90.7% | 86.7% | 98.3% | 85.2% | 88% | 96.8% | 77.9% | 49.1% | 87.7% | 82.1% | 63.5% | 65.9% | 83.7% | 63.8% | 75.5% | 48.4% | 67.1% |
| CC(C)C[C@@H](C(=O)N[C@H](C(=O)OC1CCCC1)c1ccccc1)[C@H](O)C(=O)NO [Tosedostat] (10000 nM) | 48.5% | 76.8% | -8.96% | 98.5% | 24.8% | 42.7% | 47.9% | 67.1% | 71.9% | 36.6% | 87.6% | 55.1% | 89% | 60.4% | 59.9% | 63.1% | 76.5% | 35.7% | 64.5% | 47.6% | 24.6% | 55.9% | 74% |
| COc1cc2/c(=N/c3ccc(Br)cc3F)nc[nH]c2cc1OCC1CCN(C)CC1 [Vandetanib] (1000 nM) | 96.5% | 84.1% | 80.5% | 95% | 79.3% | 95% | 89.6% | 78.9% | 99.1% | 58.9% | 87.8% | 86.4% | 76.2% | 78% | 56.3% | 91.7% | 27.1% | 79.1% | 86% | 74.5% | 69.9% | 64.9% | 74.3% |

— the supplement of paper PMC4862054
